Assay results: ChEMBL document CHEMBL1201862, “PubChem BioAssay data set” (2004)
Activity calls are given as the source filed them.

Legend:
[1] = target: T1, Calpain-2 catalytic subunit (Sus scrofa, UniProt P43367); test: m-calpain protease blockers, concentration series – biochemical, fluorogenic peptide substrate, dose response (AID 1420); type: functional
T1 sequence (P43367 whole entry): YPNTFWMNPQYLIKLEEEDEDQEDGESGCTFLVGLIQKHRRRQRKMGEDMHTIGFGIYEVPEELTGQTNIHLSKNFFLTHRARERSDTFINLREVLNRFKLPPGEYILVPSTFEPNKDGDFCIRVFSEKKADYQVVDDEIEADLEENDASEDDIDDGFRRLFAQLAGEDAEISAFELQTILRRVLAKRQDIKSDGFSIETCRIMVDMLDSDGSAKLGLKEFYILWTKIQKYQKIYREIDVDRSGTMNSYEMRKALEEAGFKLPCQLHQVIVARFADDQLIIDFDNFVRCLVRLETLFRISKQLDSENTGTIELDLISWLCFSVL

[2] = target: Estrogen receptor beta (Homo sapiens, UniProt Q92731);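 note: recombinant ER-beta bound to coactivator SRC1 peptide in presence of estradiol agonist; inhibitors block coactivator peptide binding and lower the FRET signal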
Estrogen receptor beta, sequence (Q92731 whole entry): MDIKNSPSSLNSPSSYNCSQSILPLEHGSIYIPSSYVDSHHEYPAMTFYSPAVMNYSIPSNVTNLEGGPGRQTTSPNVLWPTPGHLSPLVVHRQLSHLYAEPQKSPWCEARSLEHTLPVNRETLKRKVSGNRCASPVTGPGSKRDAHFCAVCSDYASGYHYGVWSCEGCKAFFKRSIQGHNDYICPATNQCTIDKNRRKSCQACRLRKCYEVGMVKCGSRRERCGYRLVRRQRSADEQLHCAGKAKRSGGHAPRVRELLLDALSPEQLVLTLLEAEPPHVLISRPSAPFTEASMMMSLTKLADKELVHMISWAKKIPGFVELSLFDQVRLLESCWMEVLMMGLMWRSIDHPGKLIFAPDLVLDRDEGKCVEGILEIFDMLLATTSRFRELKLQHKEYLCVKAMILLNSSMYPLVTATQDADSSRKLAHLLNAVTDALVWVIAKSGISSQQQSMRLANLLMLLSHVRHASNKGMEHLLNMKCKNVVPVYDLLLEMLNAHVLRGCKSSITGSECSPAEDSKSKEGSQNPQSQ

[3] = target: T2, Fatty acid synthase (Homo sapiens, UniProt P49327); test: inhibition of human FAS-TE enzyme activity – biochemical, kinetic fluorescence intensity, dose response (AID 624326); type: functional;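 note: rate of fluorescence rise from hydrolysis of a fluorogenic O-methyl fluorescein ester substrate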
T2 sequence (P49327 whole entry): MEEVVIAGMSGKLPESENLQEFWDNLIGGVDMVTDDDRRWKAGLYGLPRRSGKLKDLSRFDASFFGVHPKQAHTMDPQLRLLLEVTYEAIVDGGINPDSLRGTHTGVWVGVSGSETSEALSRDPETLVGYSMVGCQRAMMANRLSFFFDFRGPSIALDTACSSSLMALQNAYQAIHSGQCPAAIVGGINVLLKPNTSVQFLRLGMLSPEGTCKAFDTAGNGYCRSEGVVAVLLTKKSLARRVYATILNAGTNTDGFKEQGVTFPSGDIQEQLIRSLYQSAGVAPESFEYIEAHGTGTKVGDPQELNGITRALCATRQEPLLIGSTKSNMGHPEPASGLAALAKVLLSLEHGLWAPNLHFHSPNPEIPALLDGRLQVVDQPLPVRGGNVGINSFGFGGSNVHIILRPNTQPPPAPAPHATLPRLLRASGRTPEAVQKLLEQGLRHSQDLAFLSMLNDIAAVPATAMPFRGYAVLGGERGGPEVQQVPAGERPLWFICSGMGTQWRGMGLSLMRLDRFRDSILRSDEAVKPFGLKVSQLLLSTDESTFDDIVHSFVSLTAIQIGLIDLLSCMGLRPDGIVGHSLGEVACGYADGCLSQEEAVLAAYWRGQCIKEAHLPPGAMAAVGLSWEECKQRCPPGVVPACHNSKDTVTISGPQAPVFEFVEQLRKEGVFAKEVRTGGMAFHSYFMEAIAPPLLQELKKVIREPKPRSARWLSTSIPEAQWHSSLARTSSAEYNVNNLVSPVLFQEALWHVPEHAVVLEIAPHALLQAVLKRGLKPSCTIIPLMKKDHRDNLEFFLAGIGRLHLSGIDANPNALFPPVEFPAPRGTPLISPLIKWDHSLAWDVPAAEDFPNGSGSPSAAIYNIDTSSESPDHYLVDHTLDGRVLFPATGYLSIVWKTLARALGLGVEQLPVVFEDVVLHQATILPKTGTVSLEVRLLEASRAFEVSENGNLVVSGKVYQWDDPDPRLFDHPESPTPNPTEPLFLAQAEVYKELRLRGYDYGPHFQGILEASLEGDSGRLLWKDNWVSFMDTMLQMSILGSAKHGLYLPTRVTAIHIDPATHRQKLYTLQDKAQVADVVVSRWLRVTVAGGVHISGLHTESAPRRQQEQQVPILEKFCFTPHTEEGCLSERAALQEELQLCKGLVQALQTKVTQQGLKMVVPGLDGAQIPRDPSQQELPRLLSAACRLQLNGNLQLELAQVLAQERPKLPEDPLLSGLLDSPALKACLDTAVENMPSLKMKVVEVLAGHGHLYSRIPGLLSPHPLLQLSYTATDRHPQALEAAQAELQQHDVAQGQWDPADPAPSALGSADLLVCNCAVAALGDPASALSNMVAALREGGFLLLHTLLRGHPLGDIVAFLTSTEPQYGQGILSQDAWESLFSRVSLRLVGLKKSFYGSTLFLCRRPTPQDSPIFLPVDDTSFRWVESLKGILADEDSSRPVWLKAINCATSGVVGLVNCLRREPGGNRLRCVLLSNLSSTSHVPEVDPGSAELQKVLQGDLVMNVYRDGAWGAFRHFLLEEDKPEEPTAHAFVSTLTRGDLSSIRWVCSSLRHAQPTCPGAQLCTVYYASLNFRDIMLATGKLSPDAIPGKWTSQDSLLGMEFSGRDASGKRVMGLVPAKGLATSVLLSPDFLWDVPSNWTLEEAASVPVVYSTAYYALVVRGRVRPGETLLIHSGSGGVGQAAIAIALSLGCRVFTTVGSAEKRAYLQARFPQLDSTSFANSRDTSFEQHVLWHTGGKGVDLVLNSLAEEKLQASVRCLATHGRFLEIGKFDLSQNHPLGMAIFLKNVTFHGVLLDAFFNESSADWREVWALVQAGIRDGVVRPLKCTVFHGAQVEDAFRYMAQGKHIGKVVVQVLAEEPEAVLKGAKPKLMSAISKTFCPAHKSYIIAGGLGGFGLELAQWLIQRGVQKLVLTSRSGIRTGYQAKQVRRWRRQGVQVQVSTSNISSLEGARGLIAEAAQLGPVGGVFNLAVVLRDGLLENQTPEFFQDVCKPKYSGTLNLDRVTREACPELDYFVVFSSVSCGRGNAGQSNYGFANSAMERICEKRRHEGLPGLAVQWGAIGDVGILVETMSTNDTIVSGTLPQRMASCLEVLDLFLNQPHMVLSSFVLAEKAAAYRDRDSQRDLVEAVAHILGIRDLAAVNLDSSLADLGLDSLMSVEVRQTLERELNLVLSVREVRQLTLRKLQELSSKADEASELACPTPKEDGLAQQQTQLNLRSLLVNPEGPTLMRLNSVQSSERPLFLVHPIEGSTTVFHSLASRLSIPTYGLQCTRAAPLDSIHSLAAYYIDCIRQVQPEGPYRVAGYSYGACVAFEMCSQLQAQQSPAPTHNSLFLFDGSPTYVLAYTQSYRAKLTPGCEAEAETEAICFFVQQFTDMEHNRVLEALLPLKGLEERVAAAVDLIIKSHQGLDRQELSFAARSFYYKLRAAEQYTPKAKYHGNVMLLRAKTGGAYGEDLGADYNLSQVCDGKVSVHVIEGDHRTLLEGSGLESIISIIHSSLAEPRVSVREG

[4] = target: T2, Fatty acid synthase; test: inhibition of human FAS-TE enzyme activity – biochemical, endpoint fluorescence intensity, uHTS hits, dose response (AID 624327); type: functional;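 note: fluorescence from hydrolysis of an O-methyl fluorescein acyl ester substrate by the enzyme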
[5] = target: Heat shock protein HSP 90-alpha (Homo sapiens, UniProt P07900); type: functional, organism-based
[6] = target: T3, Apoptotic protease-activating factor 1 (Homo sapiens, UniProt O14727); type: functional
T3 sequence (O14727 whole entry): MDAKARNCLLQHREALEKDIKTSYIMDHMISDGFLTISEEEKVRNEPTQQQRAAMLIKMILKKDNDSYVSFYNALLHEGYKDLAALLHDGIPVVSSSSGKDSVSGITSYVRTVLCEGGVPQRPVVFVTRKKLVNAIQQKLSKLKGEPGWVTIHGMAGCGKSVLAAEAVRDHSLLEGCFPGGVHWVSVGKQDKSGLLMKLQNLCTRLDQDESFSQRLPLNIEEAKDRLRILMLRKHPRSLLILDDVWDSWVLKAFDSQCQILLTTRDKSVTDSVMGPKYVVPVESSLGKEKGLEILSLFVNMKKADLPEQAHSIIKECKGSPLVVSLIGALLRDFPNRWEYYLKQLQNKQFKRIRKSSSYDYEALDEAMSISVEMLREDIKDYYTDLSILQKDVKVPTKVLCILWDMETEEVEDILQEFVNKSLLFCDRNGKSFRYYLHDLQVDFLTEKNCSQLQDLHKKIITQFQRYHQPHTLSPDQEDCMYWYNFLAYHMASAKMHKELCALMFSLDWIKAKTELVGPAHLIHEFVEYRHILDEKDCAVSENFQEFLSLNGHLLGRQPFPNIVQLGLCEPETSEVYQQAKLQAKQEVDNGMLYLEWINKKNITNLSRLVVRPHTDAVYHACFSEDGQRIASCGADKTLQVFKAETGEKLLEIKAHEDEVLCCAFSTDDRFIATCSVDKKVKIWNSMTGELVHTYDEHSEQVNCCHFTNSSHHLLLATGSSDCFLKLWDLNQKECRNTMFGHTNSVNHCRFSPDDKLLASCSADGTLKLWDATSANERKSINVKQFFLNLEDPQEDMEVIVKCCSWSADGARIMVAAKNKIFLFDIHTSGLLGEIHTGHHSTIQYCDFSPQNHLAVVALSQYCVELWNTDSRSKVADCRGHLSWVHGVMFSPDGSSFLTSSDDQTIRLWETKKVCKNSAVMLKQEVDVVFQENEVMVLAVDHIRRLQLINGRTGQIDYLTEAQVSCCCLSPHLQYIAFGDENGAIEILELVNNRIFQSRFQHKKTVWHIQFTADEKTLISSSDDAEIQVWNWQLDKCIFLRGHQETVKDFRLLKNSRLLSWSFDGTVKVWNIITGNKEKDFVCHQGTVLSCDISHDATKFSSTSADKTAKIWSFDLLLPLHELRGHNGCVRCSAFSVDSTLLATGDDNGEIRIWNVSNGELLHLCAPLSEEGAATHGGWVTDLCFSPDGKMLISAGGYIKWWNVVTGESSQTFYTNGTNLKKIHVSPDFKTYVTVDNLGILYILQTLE

[7] = target: Glucose-6-phosphate 1-dehydrogenase (Homo sapiens, UniProt P11413); test: inhibition of Homo sapiens G6PD, dose series – biochemical, fluorescence, selectivity assay for P. falciparum G6PD inhibitor project, dose response (AID 504792); type: functional
Glucose-6-phosphate 1-dehydrogenase, sequence (P11413 whole entry): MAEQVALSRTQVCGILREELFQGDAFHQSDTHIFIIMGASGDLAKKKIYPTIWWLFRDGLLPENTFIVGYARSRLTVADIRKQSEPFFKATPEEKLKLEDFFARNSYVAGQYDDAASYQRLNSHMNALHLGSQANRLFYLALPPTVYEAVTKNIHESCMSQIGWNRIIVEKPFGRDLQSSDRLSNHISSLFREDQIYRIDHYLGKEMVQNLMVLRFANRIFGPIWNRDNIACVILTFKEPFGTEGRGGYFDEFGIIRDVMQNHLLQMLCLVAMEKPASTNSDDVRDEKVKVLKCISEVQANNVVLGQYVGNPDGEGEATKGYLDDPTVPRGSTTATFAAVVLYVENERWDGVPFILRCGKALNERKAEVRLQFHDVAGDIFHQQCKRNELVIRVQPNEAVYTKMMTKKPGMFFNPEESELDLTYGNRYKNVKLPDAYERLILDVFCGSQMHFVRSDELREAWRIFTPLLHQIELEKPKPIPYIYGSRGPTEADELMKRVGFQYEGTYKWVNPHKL

[8] = target: T4, Protein RecA (Mycobacterium tuberculosis, UniProt P9WHJ3); test: Fluorescence Cell-Free Homogeneous Dose Retest to Identify Inhibitors of RecA-Intein Splicing Activity. [Related pubchem assays (depositor defined):AID2097, AID2223, AID489010, AID492950]; type: functional
T4 sequence (P9WHJ3 whole entry): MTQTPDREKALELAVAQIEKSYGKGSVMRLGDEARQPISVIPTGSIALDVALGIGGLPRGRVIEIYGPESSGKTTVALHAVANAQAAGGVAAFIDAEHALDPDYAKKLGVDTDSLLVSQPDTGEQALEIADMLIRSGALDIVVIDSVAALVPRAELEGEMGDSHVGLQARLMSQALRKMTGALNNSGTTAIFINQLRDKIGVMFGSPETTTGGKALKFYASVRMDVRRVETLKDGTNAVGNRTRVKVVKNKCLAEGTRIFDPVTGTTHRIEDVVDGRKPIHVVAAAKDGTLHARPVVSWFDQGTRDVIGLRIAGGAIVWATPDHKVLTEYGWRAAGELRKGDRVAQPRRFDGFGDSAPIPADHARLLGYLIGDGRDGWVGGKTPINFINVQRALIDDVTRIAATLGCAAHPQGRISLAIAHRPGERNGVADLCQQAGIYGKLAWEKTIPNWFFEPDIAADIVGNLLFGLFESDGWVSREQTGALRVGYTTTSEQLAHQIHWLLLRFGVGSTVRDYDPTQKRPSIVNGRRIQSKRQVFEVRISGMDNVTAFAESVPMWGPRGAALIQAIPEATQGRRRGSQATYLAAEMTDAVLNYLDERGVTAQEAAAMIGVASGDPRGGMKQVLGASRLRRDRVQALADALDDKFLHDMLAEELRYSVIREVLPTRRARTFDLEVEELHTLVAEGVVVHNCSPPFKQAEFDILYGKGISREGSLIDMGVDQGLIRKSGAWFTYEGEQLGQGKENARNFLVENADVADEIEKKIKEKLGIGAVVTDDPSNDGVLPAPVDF

[9] = target: T5, Replicative DNA helicase DnaB (Mycobacterium tuberculosis, UniProt P9WMR3); test: DnaB intein splicing inhibitors, dose response, biochemical, cell-free fluorescence (AID 449749); type: functional
T5 sequence (P9WMR3 whole entry): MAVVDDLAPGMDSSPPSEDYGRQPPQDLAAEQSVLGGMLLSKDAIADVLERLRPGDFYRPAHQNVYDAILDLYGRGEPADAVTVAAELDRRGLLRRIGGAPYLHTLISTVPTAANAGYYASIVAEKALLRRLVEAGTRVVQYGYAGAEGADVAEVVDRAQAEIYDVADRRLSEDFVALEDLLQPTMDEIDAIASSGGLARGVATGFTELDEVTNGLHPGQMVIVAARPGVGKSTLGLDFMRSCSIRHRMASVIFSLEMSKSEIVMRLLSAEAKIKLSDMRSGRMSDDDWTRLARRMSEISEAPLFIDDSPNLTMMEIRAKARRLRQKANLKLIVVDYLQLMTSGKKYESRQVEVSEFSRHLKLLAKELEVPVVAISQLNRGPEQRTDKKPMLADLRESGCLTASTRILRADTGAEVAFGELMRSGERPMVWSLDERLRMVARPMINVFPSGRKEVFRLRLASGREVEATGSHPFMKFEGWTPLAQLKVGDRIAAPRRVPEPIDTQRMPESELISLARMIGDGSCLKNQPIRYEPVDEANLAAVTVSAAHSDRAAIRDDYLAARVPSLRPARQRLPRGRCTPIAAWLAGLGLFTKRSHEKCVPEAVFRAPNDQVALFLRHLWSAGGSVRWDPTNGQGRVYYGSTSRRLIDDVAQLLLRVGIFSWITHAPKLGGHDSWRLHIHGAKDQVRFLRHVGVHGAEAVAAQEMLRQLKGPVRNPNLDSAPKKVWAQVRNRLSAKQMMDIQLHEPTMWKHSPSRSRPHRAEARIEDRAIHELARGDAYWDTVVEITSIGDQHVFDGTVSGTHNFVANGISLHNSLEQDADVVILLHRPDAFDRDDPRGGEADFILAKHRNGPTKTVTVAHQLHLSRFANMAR

[10] = off-target signal loss in HeLa-CEM21 co-culture – HeLa F-luc CTL cells, cherry-picked, counter-screen for HIV-1 Env fusion inhibitor project, dose response (AID 652040); type: functional, cell-based;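 note: potency for signal decrease marking cytotoxic or nonspecific inhibition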
[11] = HIV-1 AD8 envelope cell-cell fusion blockers – cherry-pick, dose response (AID 652062); type: functional, cell-based;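 note: luciferase signal from cell-cell fusion driven by HIV-1 clade B AD8 Env; potency is for inhibitors of fusion seen as a drop in luminescence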
[12] = blockers of HIV-1 envelope-mediated cell-cell fusion – cherry-pick, dose response (AID 652057); type: functional, cell-based
[13] = system: BJ; test: BJ-TERT fibroblast viability loss – cell-based, RAS-independent, luminescence, dose response (AID 1933); type: functional; settings: Homo sapiens
[14] = reduction of Shn3 3'UTR-driven luciferase in osteoblasts – cell-based, Clone20 osteoblasts, firefly luciferase, cherry-picked, dose response (AID 624132); type: functional;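 note: firefly luciferase luminescence from reporter carrying the Shn3 3'UTR in osteoblasts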
[15] = system: BJ; test: BJ-TERT-LT-ST fibroblast viability loss – cell-based, RAS-independent, luminescence, dose response (AID 1935); type: functional; settings: Homo sapiens;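 note: BJ fibroblasts immortalized with TERT plus LT and ST oncogenes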
[16] = system: BJ; test: cells; type: functional, cell-based; settings: Homo sapiens
[17] = non-specific 3'UTR reporter inhibition in Clone20-Shn3RL – cell-based, Renilla luciferase, cherry-picked, counter-screen for Shn3 inhibitor project, dose response (AID 624133); type: functional
[18] = DRD fibroblast viability loss – cell-based, non-viral oncogenic, luminescence, dose response (AID 1934); type: functional; settings: Homo sapiens
[19] = loss of viability in HepG2 cells – cell-based, CellTiter-Glo, cherry-picked, cytotoxicity control for Shn3 inhibitor project, dose response (AID 624134); type: functional

O=C(CN=C(S)N(Cc1ccccc1)Cc1ccccc1F)NCc1ccccc1
IC50 [1]: > 50 µM (not active)

COc1cccc(-n2nc(-c3ccnn3-c3ccc(F)cc3)c(=O)n(C)c2=O)c1
IC50 [2]: > 50 µM (not active)

Cc1cc(-c2ccc(N3C(=O)CCC3=O)c(C)c2)ccc1N1C(=O)CCC1=O
IC50 [2]: > 50 µM (not active)

O=C(Nc1ccc(Br)cc1)c1cccc(-n2cnnn2)c1
IC50 [3]: 24.8 µM (inactive)
IC50 [4]: 32.9 µM (inactive)

CSc1ccc(CN2C(=O)C(F)(F)Oc3c(C(C)=O)cccc32)cc1
IC50 [3]: 9.77 µM (active)
IC50 [4]: 9.19 µM (active)

COc1cc(/C=N/n2cnnc2)ccc1OS(=O)(=O)c1ccccc1[N+](=O)[O-]
IC50 [1]: 15.5 µM (not active)

Cc1ccc(C)c(NC(=O)Cc2nc(CCl)cs2)c1
IC50 [1]: 1.04 µM (not active)

Oc1ccc(O)c2c1C1(Cl)C(Cl)=C(Cl)C2(Cl)C1(Cl)Cl
AC50 [5]: 8.21 µM (active)
IC50 [3]: 14.1 µM (active)
IC50 [4]: 15.7 µM (active)

O=C(COC(=O)CSc1ccc2ccccc2c1)Nc1ccccc1OC(F)F
IC50 [1]: 1.8 µM (not active)

COc1ccc(C(=O)N2CCN(CCc3ccccc3)CC2)cc1[N+](=O)[O-]
IC50 [3]: 0.525 µM (active)
IC50 [4]: 0.786 µM (active)

CCOc1cc(NCc2ccccc2)c2ncn(C(C)C)c2c1
IC50 [6]: 34.7 µM (active)
IC50 [7]: > 80 µM (inactive)

O=[N+]([O-])c1ccc(Oc2cccc(F)c2)c2ccncc12
EC50 [8]: 0.956 µM (active)
IC50 [1]: 3.5 µM (not active)
AC50 [9]: > 380 µM (inactive)

Cc1c([C@H]2[C@@H](CC#N)C2(C)C)c2ccccc2n1C
IC50 [2]: > 50 µM (not active)

CCN(CC)S(=O)(=O)c1cccc(S(=O)(=O)c2cccc(S(=O)(=O)N(CC)CC)c2)c1
AC50 [10]: 43.7 µM (active)
AC50 [11]: 18.3 µM (active)
AC50 [12]: 20.8 µM (active)

COc1ccc(/C=C/C(=O)c2ccc(C(=O)/C=C/c3ccc(OC)c(OC)c3)cc2)cc1OC
EC50 [13]: 7.92 µM (active)
AC50 [14]: 5.18 µM (active)
EC50 [15]: 10.7 µM (inconclusive)
EC50 [16]: 27 µM (active)
AC50 [17]: 25.9 µM (active)
EC50 [18]: 10.4 µM (active)
AC50 [19]: 69.1 µM (active)

C[C@@]12C(=O)N(c3cccc(Br)c3)C(=O)N1[C@H](c1ccc(Cl)cc1)[C@@H]1C(=O)N(C3CCCCC3)C(=O)[C@@H]12
IC50 [3]: 5.22 µM (active)
IC50 [4]: 7.4 µM (active)

CCc1ccc(C(=O)C(C)OC(=O)Cc2nnc(O)c3ccccc23)cc1 (configuration not stated)
EC50 [13]: 18.2 µM (active)
EC50 [15]: > 150 µM (inconclusive)
EC50 [16]: 49.9 µM (inconclusive)
EC50 [18]: 17.9 µM (active)

O=C(/C=C/c1ccco1)NC(=S)Nc1cccc(-c2nc3ccccc3o2)c1
EC50 [13]: 9.72 µM (active)
EC50 [15]: 3.83 µM (active)
EC50 [16]: 88.3 µM (active)
EC50 [18]: 12.1 µM (inconclusive)

CCOc1ccccc1N1CCN(C(=O)C2c3ccccc3Oc3ccccc32)CC1
IC50 [6]: 29.3 µM (active)
